The values below come from patent US20030157035A1, “PHOTO STABLE ORGANIC SUNSCREEN COMPOUNDS WITH ANTIOXIDANT PROPERTIES AND COMPOSITIONS OBTAINED THEREFROM” (EM Industries, priority 2001, published 2003).

Like-named read-outs stand apart in the source and are kept apart here.

A short description of data set [1]: UV-visible absorption spectrum. Type of data set: physicochemical.
Procedure: (§1) Each sunscreen compound is dissolved in 70% ethanol/30% water and the UV visible absorption spectrum measured with a Shimadza UV 2101-double beam spectrophotometer using the solvent as reference. A control solution of Octocrylene is prepared and the UV-visible absorption spectrum measured. Each solution is then illuminated for two hours in the solar simulator. After illumination, the absorption spectrum is again measured for each solution.
Data set [2] in a line: Photostability in Xe-arc solar simulator (loss of UV absorption). To be noted: 70% ethanol/30% water, about 250 J/cm^2.
Procedure: Compounds are illuminated in a solar simulator incorporating a 1 kw Xe arc lamp, optical bench and illumination chamber. The entire output of the illumination system is focused onto the face of a 1 centimeter Cuvette (an area of 4 cm^2) that contains the dilute samples of a compound of Formula I. The samples experience roughly 250 J/cm^2 of radiation between 290 and 400 nm over a period of two hours. The solutions contain between 0.0056 mg/ml and 2.5 mg/ml.
A solar simulator used for illumination of the samples in the experiments is constructed incorporating a 1 kw Xe arc lamp, optical bench and sample illumination chamber. The lamp output is filtered through a water filter with a course window to remove most of the infrared radiation and optical filters to remove wavelengths below 290 mn. The output of the illumination system is focused onto the face of a 1 cm quartz Cuvette that is thermally equilibrated with a constant temperature water bath at 25° C. A magnetic stir is mounted under the Cuvette so that the samples could be stirred while being illuminated. An electric shutter is controlled by a dark room timer to provide precise control of illumination times. The solar simulator is constructed to provide illumination that closely matches terrestrial sunlight. The solar simulator delivers roughly 250 J/cm^2 over a 2-hour period of illumination in a 290-490 nm range. This irradiance is determined using two nitrobenzaldehyde chemical actinometry. The irradiance is much higher than other solar simulator systems which typically illuminate a large area in order to illuminate many samples simultaneously rather than being focused down to a very small area.
as §1
The nature of data set [3]: DPPH test method (reducing activity of DPPH radical). Type of data set: biochemical. The settings on record: absorbance at 517 nm after 20 minutes. As for the experimental part:
A DPPH working solution is then prepared by diluting 100 mL of this concentrate to a final volume of 250 mL (100 μM/mL). A blank 13×100 mm borosilicate glass screw top tube of ethanol (USP) is used to zero the spectrometer (Milton Roy, Spectronic 20+) at 517 nm and a control tube of DPPH working solution is measured under identical conditions, and taken as 0% activity. […] After 20 minutes, the absorbance of each sample is read at 517 nm.
The percent reducing activity (%RA) is calculated using the following equation: [formula]
Where A(0) is the absorbance value of the DPPH working solution at 517nm zeroed against an ethanol blank and A(20) is the absorbance at 517 nm, 20 minutes after combining the antioxidant with the DPPH working solution.
The concentration of antioxidant (mg/ml) in the final assay mixture is calculated based on the dilution of respective aliquots of each compound in the final assay volume and %RA tabulated and plotted as percent activity at each concentration in the dilution series.
The antioxidant activity of selected compounds of this invention was determined from their reducing activity of a DPPH radical.
For orientation: The DPPH test is a chemical assay of radical scavenging.

Data set [4] is described as follows: Stabilization of Avobenzone under solar simulator illumination (HPLC). Type of data set: physicochemical. As for the experimental part:
Individual solutions of selected sunscreen compounds (see Table 1) with Avobenzone were as follows. Each sunscreen compound was dissolved in 50% ethanol/50% H2O solution containing roughly an equal molar amount of Avobenzone. A similar solution containing Di-2-ethylhexyl-2,6-napthalene dicarboxylic acid (DENDA) and Avobenzone was also prepared. Each solution was then illuminated in the solar simulator as configured above for the photostability tests and aliquots of each solution were removed at 30-minute time intervals. These aliquots were injected into an HPLC and the loss of Avobenzone was followed with illumination time. The high performance liquid chromatograph (HPLC) used for all experiments reported therein incorporated a Spectra-Physics model P-200 pump with an Applied Biosystems model 785A UV-Visible detector with a Rheodyne manual injector incorporating a […] sample loop and a 150×4.6 mm reversed-phase C18 column (Alltech). All analyses were carried out under isocratic elution conditions using […] mixtures for the mobile phase at a flow rate of […] per minute. It was necessary to employ HPLC separation of Avobenzone from each of the sunscreen compounds to quantify Avobenzone due to the absorption spectra overlap with some of these compounds.

The mark [5] stands for this setting: Product/Avobenzone (1:1, w/w), % Loss of Avobenzone by HPLC, solar simulator, 2 hrs.

`COc1cc(C=C(C(C)=O)C(=O)OCCC(C)C)cc(C(C)C)c1O` [Isoamyl-alpha-acetyl-3-methoxy-4-hydroxy-5-isopropyl-cinnamate]: the “λmax, nm (Ethanol)” value in data set [1] came to 341 nm. Further, the “Photostability % Loss in 2 hrs” value in data set [2] is reported as 3.2%. Also, the “% Reducing Activity of DPPH Radical at 30 μg/ml” value (from here on “% Reducing Activity”) in data set [3] was determined as 28%. Besides, in data set [4] (setting [5]), the “Stabilization of Avobenzone % Loss of Avobenzone in 2 hrs” value is “insignificant”.
As for `CCCCC(CC)COC(=O)C(=Cc1cc(OC)c(O)c(C(C)C)c1)C(=O)OCC(CC)CCCC` (stereo not shown) [di-(2-ethyhexyl)-3-methoxy-4-hydroxy-5-isopropyl-benzylidene malonate], the “λmax, nm (Ethanol)” value in data set [1] is on record as 334 nm. Besides, the “% Reducing Activity” value in data set [3] worked out at 11.2%. Moreover, the “Stabilization of Avobenzone % Loss of Avobenzone in 2 hrs” value in data set [4] is 2.5%.
For the compound `COc1cc(C=C(C(C)=O)C(=O)OCCC(C)C)ccc1O` [Iso-amyl-alpha-acetyl-3-methoxy-4-hydroxy-cinnamate], the “λmax, nm (Ethanol)” value in data set [1] is recorded as 339 nm. In data set [2], the “Photostability % Loss in 2 hrs” value is 4.1%. Moreover, the “% Reducing Activity” value in data set [3] worked out at 22%. The “Stabilization of Avobenzone % Loss of Avobenzone in 2 hrs” value in data set [4] (setting [5]) is reported as “insignificant”.
As for `COc1ccc(C(=O)CC(=O)c2ccc(C(C)(C)C)cc2)cc1` [Avobenzone, reference compound], the “λmax, nm (Ethanol)” value in data set [1] came to 358 nm. Besides, in data set [2], the “Photostability % Loss in 2 hrs” value is reported as 37%.
On to `CCCCC(CC)COC(=O)C(=Cc1ccc(O)c(OC)c1)C(=O)OCC(CC)CCCC` (stereo not shown) [Di-(2-Ethylhexyl)-3-methoxy-4-hydroxy benzylidene malonate], for which, in data set [1], the “λmax, nm (Ethanol)” value is 332 nm. In data set [3], the “% Reducing Activity” value was found to be 7.4%. Besides, in data set [4], the “Stabilization of Avobenzone % Loss of Avobenzone in 2 hrs” value is listed as 4.5%.
On to `CCCCC(CC)COC(=O)C(C#N)=C(c1ccccc1)c1ccccc1` (stereo not shown) [Octocrylene, reference compound], for which, in data set [1], the “λmax, nm (Ethanol)” value is 303 nm. In data set [2], the “Photostability % Loss in 2 hrs” value is recorded as 2.8%. Besides, the “Stabilization of Avobenzone % Loss of Avobenzone in 2 hrs” value in data set [4] (setting [5]) was 1.5%.
`COc1cc(C=C(C(=O)OCCC(C)C)C(=O)OCCC(C)C)ccc1O` [Di-isoamyl-3-methoxy-4-hydroxy benzylidene malonate]: in data set [1], the “λmax, nm (Ethanol)” value stood at 333 nm. Also, the “% Reducing Activity” value in data set [3] turned out to be 9.5%. Further, in data set [4], the “Stabilization of Avobenzone % Loss of Avobenzone in 2 hrs” value is reported as 3.8%.
